The test deals with HSV-1. In words: HSV-1 infection of Vero 76 cells, viral DNA hybridization capture assay. Conditions: Human alphaherpesvirus 1; HSV-1 (MOI=0.001) in Vero 76 cells, 40–48 hours incubation, HSV DNA hybridization with chemiluminescence detection. The test is classed as cell-based. The protocol:
Vero 76 cells were maintained in MEM with Earle's salts, L-glutamine, 8% FBS (Hyclone, A-1111-L) and 100 units/mL Penicillin-100 μg/mL Streptomycin. For assay conditions, FBS was reduced to 2%. Cells are seeded into 96-well tissue culture plates at a density of 5×10^4 cells/well after being incubated for 45 min at 37° C. in the presence of HSV-1 or HSV-2 (MOI=0.001). Test compounds are added to the wells and the plates are incubated at 37° C. for 40–48 hours. Cell lysates are prepared as follows: media was removed and replaced with 150 μL/well 0.2 N NaOH with 1% Igepal CA 630 or NP-40. Plates were incubated up to 14 days at room temperature in a humidified chamber to prevent evaporation.
For the detection probe, a gel-purified, digoxigenin-labeled, […] PCR fragment of the HSV UL-15 sequence was utilized. PCR conditions included 0.5 μM primers, 180 μM dTTP, 20 μM dUTP-digoxigenin (Boehringer Mannheim 1558706), 200 μM each of dATP, dCTP, and dGTP, 1×PCR Buffer II (Perkin Elmer), 2.5 mM, MgCl2, 0.025 units/μL of AmpliTaq Gold polyerase (Perkin Elmer), and 5 ng a gel-purified HSV DNA per 100 μL Extension conditions were 10 min at 95° C., followed by 30 cycles of 95° C. for 1 min, 55° C. for 30 sec, and 72° C. for 2 min. The amplification was completed with a 10-min incubation at 72° C. Primers were selected to amplify a 728 bp probe spanning a section of the HSV1 UL15 open reading frame (nucleotides 249–977). Single-stranded transcripts were purified with Promega M13 Wizard kits. The final product was mixed 1:1 with a mixture of 6 M GuSCN, 100 mM EDTA and 200 μg/mL herring sperm DNA and stored at 4° C.
The capture DNA plasmid (HSV UL13 region in pUC) was linearized by cutting with Xba I, denatured for 15 min at 95° C. and diluted immediately into Reacti-Bind DNA Coating Solution (Pierce, 17250, diluted 1:1 with TE buffer, pH 8) at 1 ng/μL 75 μl/well were added to Corning (#3922 or 9690) white 96-well plates and incubated at room temperature for at least 4 hrs before washing twice with 300 μL/well 0.2×SSC/0.05% Tween-20 (SSC/T buffer). The plates were then incubated overnight at room temperature with 150 μL/well 0.2 N NaOH, 1% IGEPAL and 10 μg/mL herring sperm DNA.
Twenty-seven (27) μL of cell lysate was combined with 45 μL of hydridization solution (final concentration: 3M GuSCN, 50 mM EDTA, 100 μg/ml salmon sperm DNA, 5× Denhardt's solution, 0.25× APE, and 5 ng of the digoxigenin-labeled detection probe). APE is 1.5 M NH4-acetate, 0.15 M NH4H2phosphate, and 5 mM EDTA adjusted to pH 6.0. Mineral oil (50 μL) was added to prevent evaporation. The hybridization plates were incubated at 95° C. for 10 minutes to denature the DNA, then incubated at 42° C. overnight. The wells were washed 6× with 300 μL/well SSC/T buffer then incubated with 75 μL/well anti-digoxigenin-HRP-conjugated antibody (Boehringer Mannheim 1207733, 1:5000 in TE) for 30 min at room temperature. The wells were washed 6× with 300 μL/well with PBS/0.05% Tween-20 before 75 μL/well SuperSignal LBA substrate (Pierce) was added. The plates were incubated at room temperature for 30 minutes and chemiluminescence was measured in a Wallac Vietor reader.
The following results were obtained for HSV-1.

Molecules are shown by their SMILES. Some results are limits rather than exact numbers.

In general, IC50 refers to the point on the concentration scale where inhibition reaches its midpoint.

Consider `Fc1ccc(-c2nn3c(NC4CCCC4)nccc3c2-c2ccnc(NC3CCCC3)n2)cc1` [Example 1, N-Cyclopentyl-3-[2-(cyclopentylamino)pyrimidin-4-yl]-2-(4-fluorophenyl)pyrazolo[1,5-c]pyrimidin-7-amine], for which it took 720 nM to reach half-maximal inhibition (IC50). This counts as sub-micromolar.

`Fc1ccc(-c2nn3c(NC4CCCC4)nccc3c2-c2ccnc(NC3CC3)n2)cc1` [Example 2, N-Cyclopentyl-3-[2-(cyclopropylamino)pyrimidin-4yl]-2-(4-fluorophenyl)pyrazolo[1,5-c]pyrimidin-7-amine]: the half-maximal inhibitory concentration (IC50) is 5500 nM.

Compound `Clc1cccc(-c2nn3cnccc3c2-c2ccnc(NC3CCCC3)n2)c1` [Example 3, 4-[2-(3-Chlorophenyl)pyrazolo[1,5-c]pyrimidin-3-yl]-N-cyclopentylpyrimidin-2-amine] registered a concentration for half-maximal inhibition (IC50) of 3900 nM.

Regarding `CSc1nccc2c(-c3ccnc(NC4CCCC4)n3)c(-c3cccc(Cl)c3)nn12` [Example 4, 4-[2-(3-Chlorophenyl)-7-(methylthio)pyrazolo[1,5-c]pyrimidin-3-yl]-N-cyclopentylpyrimidin-2-amine], the IC50 was 11300 nM.

`Clc1cccc(-c2nn3c(NC4CCCC4)nccc3c2-c2ccnc(NC3CCCC3)n2)c1` [Example 5, 2-(3-Chlorophenyl)-N-cyclopentyl-3-[2-(cyclopentylamino)-4-pyrimidinyl]pyrazolo[1,5-c]pyrimidin-7-amine]: the IC50 was 460 nM.

Consider `Clc1cccc(-c2nn3c(N4CCOCC4)nccc3c2-c2ccnc(NC3CCCC3)n2)c1` [Example 6, 4-[2-(3-Chlorophenyl)-7-(4-morpholinyl)pyrazolo[1,5-c]pyrimidin-3-yl]-N-cyclopentyl-2-pyrimidinamine], for which inhibition was half-maximal at 200 nM (IC50).

Turning to `COCCNc1nccc2c(-c3ccnc(NC4CCCC4)n3)c(-c3cccc(Cl)c3)nn12` [Example 7, 2-(3-Chlorophenyl)-3-[2-(cyclopentylamino)-4-pyrimidinyl]-N-(2-methoxyethyl)pyrazolo[1,5-c]pyrimidin-7-amine], the IC50 came out at 300 nM.

As to `Oc1nccc2c(-c3ccnc(NC4CCCC4)n3)c(-c3cccc(Cl)c3)nn12` [Example 8, 2-(3-Chlorophenyl)-3-[2-(cyclopentylamino)-4-pyrimidinyl]pyrazolo[1,5-c]pyrimidin-7-ol], the IC50 was determined as 2500 nM.

`CSc1nc(NC2CCCC2)n2nc(-c3ccccc3)c(-c3ccnc(F)c3)c2n1` [Example 9, N-Cyclopentyl-8-(2-fluoro-4-pyridinyl)-2-(methylsulfanyl)-7-phenylpyrazolo[1,5-a][1,3,5]triazin-4-amine]: 7100 nM corresponded to half-maximal inhibition (IC50).

`c1ccc(-c2nn3c(NC4CCCC4)nc(NC4CCCC4)nc3c2-c2ccnc(NC3CCCC3)c2)cc1` [Example 10, N^2,N^4-Dicyclopentyl-8-[2-(cyclopentylamino)-4-pyridinyl]-7-phenylpyrazolo[1,5-a][1,3,5]triazine-2,4-diamine] yielded an IC50 of 120 nM. Compared with the last compound, the IC50 is about 59-fold lower.

Compound `c1ccc(-c2nn3c(NC4CCCC4)ncnc3c2-c2ccnc(NC3CCCC3)n2)cc1` [Example 11, N-Cyclopentyl-8-[2-(cyclopentylamino)-4-pyrimidinyl]-7-phenylpyrazolo[1,5-a][1,3,5]triazin-4-amine] returned an IC50 of 6400 nM.

The compound `CCCCNc1nccc(-c2c(-c3ccc(F)cc3)nn3c(NC4CCCC4)nccc23)n1` [Example 12, 3-[2-(Butylamino)pyrimidin-4-yl]-N-cyclopentyl-2-(4-fluorophenyl)pyrazolo[1,5-c]pyrimidin-7-amine] returned a half-maximal inhibitory concentration (IC50) of 1000 nM.

For the compound `Fc1ccc(-c2nn3c(NC4CCCC4)nccc3c2-c2ccnc(Nc3ccccc3)n2)cc1` [Example 13, 3-(2-Anilinopyrimidin-4-yl)-N-cyclopentyl-2-(4-fluorophenyl)pyrazolo-[1,5-c]pyrimidin-7-amine], the IC50 is 1500 nM.

In turn, `Fc1ccc(-c2nn3c(NC4CCCC4)nccc3c2-c2ccnc(Nc3nc4ccccc4s3)n2)cc1` [Example 14, 3-[2-(1,3-Benzothiazol-2-ylamino)pyrimidin-4-yl]-N-cyclopentyl-2-(4-fluorophenyl)pyrazolo[1,5-c]pyrimidin-7-amine] came in with an IC50 greater than 40000 nM.

`Cc1csc(Nc2nccc(-c3c(-c4ccc(F)cc4)nn4c(NC5CCCC5)nccc34)n2)n1` [Example 15, N-Cyclopentyl-2-(4-fluorophenyl)-3-{2-[(4-methyl-1,3-thiazol-2-yl)amino]pyrimidin-4-yl}pyrazolo[1,5-c]pyrimidin-7-amine] displayed an IC50 greater than 40000 nM.

In the case of `Fc1ccc(-c2nn3c(NC4CCCC4)nccc3c2-c2ccnc(Nc3nc4ccccc4[nH]3)n2)cc1` [Example 16, 3-[2-(1H-Benzimidazol-2-ylamino)pyrimidin-4-yl]-N-cyclopentyl-2-(4-fluorophenyl)pyrazolo[1,5-c]pyrimidin-7-amine], the IC50 is greater than 40000 nM.

The compound `Fc1ccc(CNc2nccc(-c3c(-c4ccc(F)cc4)nn4c(NC5CCCC5)nccc34)n2)cc1` [Example 17, N-Cyclopentyl-3-{2-[(4-fluorobenzyl)amino]pyrimidin-4-yl}-2-(4-fluorophenyl)pyrazolo[1,5-c]pyrimidin-7-amine] yielded an IC50 of 2000 nM.

Take `Fc1ccc(-c2nn3c(NC4CCCC4)nccc3c2-c2ccnc(NCCc3ccccc3)n2)cc1` [Example 18, N-Cyclopentyl-2-(4-fluorophenyl)-3-{2-[(2-phenylethyl)amino]pyrimidin-4yl}pyrazolo[1,5-c]pyrimidin-7-amine]: 3500 nM corresponded to half-maximal inhibition (IC50).

As for `CC(C)(C)Nc1nccc(-c2c(-c3ccc(F)cc3)nn3c(NC4CCCC4)nccc23)n1` [Example 19, 3-[2-(tert-Butylamino)pyrimidin-4-yl]-N-cyclopentyl-2-(4-fluorophenyl)pyrazolo[1,5-c]pyrimidin-7-amine], the half-maximal inhibitory concentration (IC50) was found to be 3000 nM.

`CSc1nccc2c(-c3ccnc(NC4CCCC4)n3)c(-c3ccc(F)cc3)nn12` [Example 20, N-Cyclopentyl-4-[2-(4-fluorophenyl)-7-(methylsulfanyl)pyrazolo[1,5-c]pyrimidin-3-yl]pyrimidin-2-amine] came in with an IC50 greater than 40000 nM.

Consider `COc1ccc(-c2nn3c(NC4CCCC4)nccc3c2-c2ccnc(NC3CCCC3)n2)cc1` [Example 21, N-Cyclopentyl-3-[2-(cyclopentylamino)pyrimidin-4-yl]-2-(4-methoxyphenyl)pyrazolo[1,5-c]pyrimidin-7-amine], for which half-maximal inhibition (IC50) was put at 400 nM. This counts as sub-micromolar.

In turn, `Oc1ccc(-c2nn3c(NC4CCCC4)nccc3c2-c2ccnc(NC3CCCC3)n2)cc1` [Example 22, 4-{7-(Cyclopentylamino)-3-[2-(cyclopentylamino)pyrimidin-4-yl]pyrazolo[1,5-c]pyrimidin-2-yl}phenol] came in with an IC50 of 4000 nM.

For `c1cc(-c2c(-c3ccc(OCC4CC4)cc3)nn3c(NC4CCCC4)nccc23)nc(NC2CCCC2)n1` [Example 23, N-Cyclopentyl-3-[2-(cyclopentylamino)pyrimidin-4-yl]-2-[4-(cyclopropylmethoxy)phenyl]pyrazolo[1,5-c]pyrimidin-7-amine], half-maximal inhibition (IC50) was put at 500 nM.

As to `COc1ccc(-c2nn3c(NC4CC4)nccc3c2-c2ccnc(NC3CCCC3)n2)cc1` [Example 24, 3-[2-(Cyclopentylamino)pyrimidin-4-yl]-N-cyclopropyl-2-(4-methoxyphenyl)pyrazolo[1,5-c]pyrimidin-7-amine], the half-maximal inhibitory concentration (IC50) amounted to 1000 nM.

`CCCCOc1ccc(-c2nn3c(NC4CCCC4)nccc3c2-c2ccnc(NC3CCCC3)n2)cc1` [Example 25, 2-(4-Butoxyphenyl)-N-cyclopentyl-3-[2-(cyclopentylamino)pyrimidin-4-yl]pyrazolo[1,5-c]pyrimidin-7-amine] had an IC50 of 600 nM.

Turning to `CC(C)COc1ccc(-c2nn3c(NC4CCCC4)nccc3c2-c2ccnc(NC3CCCC3)n2)cc1` [Example 26, N-Cyclopentyl-3-[2-(cyclopentylamino)pyrimidin-4-yl]-2-(4-isobutoxyphenyl)pyrazolo[1,5-c]pyrimidin-7-amine], inhibition was half-maximal at 500 nM (IC50). The IC50 values of the last two compounds are within 1.5-fold of each other.

Source of the values: US7247626B2, “Pyrazolopyrimidine derivatives and pharmaceutical compositions containing them” (SmithKline Beecham Corporation, priority 2002, dated 2007).
